molecular target: His-tagged CRBN-DDB1 complex (Homo sapiens, UniProt Q96SW2); assay: Time-Resolved Fluorescence Resonance Energy Transfer (TR-FRET / HTRF) CRBN binding assay, displacement of Cy5-labeled thalidomide; conditions: His-CRBN-DDB1, Cy5-thalidomide 8 nM, 1 hour room temperature
Procedure: Time-Resolved Fluorescence Resonance Energy Transfer (TR-FRET) Assay.
Equal volumes of His-tagged CRBN-DDB1 complex (56 nM) was mixed with Eu-cryptate labeled Anti-6HIS-monoclonal antibody (50× dilution from the commercial stock solution, Vender: Cisbio, Cat. #61HI2KLA) in a final buffer containing 20 mM HEPES pH 7.0, 150 mM NaCl, 0.005% Tween-20. […] The mixture were incubated at room temperature for 1 hour. FRET signals were measured on an EnVision plate reader (Perkin Elmer) by exciting at 340 nm and recording emission at both 615 nm as no FRET control and 665 nm as the FRET signals with a 60 microsecond delay. FRET efficiency was calculated as the ratio of fluorescent signals at […]. Quantitative loss of FRET efficiency as a function of compound concentrations was fitted by a four-parameter Logistic Function using GraphPad Prism 7.0 and the IC50 values were reported for each compound.
The compound numbers correspond to the compound numbers in Table 1.

Chain of His-tagged CRBN-DDB1 complex (Q96SW2 whole entry): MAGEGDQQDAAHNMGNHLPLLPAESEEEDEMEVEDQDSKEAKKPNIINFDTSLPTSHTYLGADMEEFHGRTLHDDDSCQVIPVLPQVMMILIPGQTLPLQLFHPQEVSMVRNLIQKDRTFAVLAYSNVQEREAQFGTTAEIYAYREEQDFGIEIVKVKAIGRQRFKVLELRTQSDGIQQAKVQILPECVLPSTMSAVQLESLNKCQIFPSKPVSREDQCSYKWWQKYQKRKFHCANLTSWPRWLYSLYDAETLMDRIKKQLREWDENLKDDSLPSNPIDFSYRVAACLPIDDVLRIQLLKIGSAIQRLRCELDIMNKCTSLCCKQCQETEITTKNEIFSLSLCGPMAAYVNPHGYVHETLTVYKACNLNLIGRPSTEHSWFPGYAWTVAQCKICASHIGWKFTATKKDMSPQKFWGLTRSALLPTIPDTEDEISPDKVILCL
Chain of His-tagged CRBN-DDB1 complex (Q16531 whole entry partner): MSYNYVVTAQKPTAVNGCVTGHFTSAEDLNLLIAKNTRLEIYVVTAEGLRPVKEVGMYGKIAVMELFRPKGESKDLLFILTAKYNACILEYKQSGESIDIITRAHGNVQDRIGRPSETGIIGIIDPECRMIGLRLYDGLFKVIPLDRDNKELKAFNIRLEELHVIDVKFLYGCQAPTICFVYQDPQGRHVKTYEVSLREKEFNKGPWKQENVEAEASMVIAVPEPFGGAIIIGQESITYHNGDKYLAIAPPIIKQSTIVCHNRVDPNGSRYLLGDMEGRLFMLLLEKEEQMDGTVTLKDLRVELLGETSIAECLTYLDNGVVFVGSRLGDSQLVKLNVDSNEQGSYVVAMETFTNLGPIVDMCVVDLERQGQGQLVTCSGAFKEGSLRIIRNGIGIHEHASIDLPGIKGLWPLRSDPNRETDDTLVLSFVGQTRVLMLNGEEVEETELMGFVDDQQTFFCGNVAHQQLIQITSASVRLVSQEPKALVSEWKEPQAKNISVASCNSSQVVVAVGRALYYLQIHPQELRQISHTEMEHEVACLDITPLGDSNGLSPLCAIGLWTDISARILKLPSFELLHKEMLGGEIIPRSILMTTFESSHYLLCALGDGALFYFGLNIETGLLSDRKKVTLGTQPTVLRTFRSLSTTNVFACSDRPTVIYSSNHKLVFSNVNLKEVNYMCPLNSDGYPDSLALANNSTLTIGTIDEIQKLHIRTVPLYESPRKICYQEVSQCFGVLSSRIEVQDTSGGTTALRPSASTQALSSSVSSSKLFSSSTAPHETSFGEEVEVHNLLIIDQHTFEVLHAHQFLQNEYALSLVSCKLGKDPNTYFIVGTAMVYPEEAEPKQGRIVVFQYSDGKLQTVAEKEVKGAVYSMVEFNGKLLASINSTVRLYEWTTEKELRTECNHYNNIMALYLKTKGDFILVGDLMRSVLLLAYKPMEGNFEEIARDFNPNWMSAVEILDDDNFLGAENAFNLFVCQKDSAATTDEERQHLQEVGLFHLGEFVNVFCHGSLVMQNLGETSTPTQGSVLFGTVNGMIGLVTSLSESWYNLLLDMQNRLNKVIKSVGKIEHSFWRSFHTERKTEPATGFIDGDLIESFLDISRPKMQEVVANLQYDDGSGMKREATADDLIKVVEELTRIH

Row | SMILES | IC50 [µM]
1 | O=C1NC(=O)[C@@H]2CN(C(=O)c3ccc(F)cc3)C[C@H]12 [Compound I-322] | > 100
2 | Cc1cccc(C(=O)N2C[C@@H]3C(=O)NC(=O)[C@@H]3C2)c1 [Compound I-323] | > 100
3 | COc1ccc(C(=O)N2C[C@@H]3C(=O)NC(=O)[C@@H]3C2)cn1 [Compound I-324] | > 100
4 | O=C1NC(=O)[C@@H]2CN(Cc3cccc4ccccc34)C[C@H]12 [Compound I-325] | > 100
5 | CC(=O)Nc1ccc2c(c1)C(=O)NC2=O [Compound I-326] | > 100
6 | O=C1NC(=O)[C@@H]2CNC[C@H]12 [Compound I-327] | > 100
7 | O=C1NC(=O)[C@@H]2CN(Cc3ccccc3)C[C@H]12 [Compound I-328] | > 100
8 | O=C1CC2(CCN(Cc3cccc4cccnc34)CC2)CC(=O)N1 [Compound I-329] | > 100
9 | O=C1CC2(CCN(Cc3cccc4ccccc34)CC2)CC(=O)N1 [Compound I-331] | > 100
10 | CN(C)c1ccc(CN2CCC3(CC2)CC(=O)NC(=O)C3)cc1 [Compound I-332] | > 100
11 | O=C1CC2(CCN(Cc3cc4ccccc4o3)CC2)CC(=O)N1 [Compound I-333] | > 100
12 | O=C1CC2(CCN(C(=O)COCc3ccccc3)CC2)CC(=O)N1 [Compound I-334] | > 100
13 | CCCCOc1ccc(CN2CCC3(CC2)CC(=O)NC(=O)C3)cc1 [Compound I-335] | > 100
14 | O=C1CC2(CCN(Cc3ccc(F)c4ccccc34)CC2)CC(=O)N1 [Compound I-336] | > 100
15 | O=C1CC2(CCN(Cc3ccc[nH]3)CC2)CC(=O)N1 [Compound I-337] | > 100
16 | Cc1ccc(CN2CCC3(CC2)CC(=O)NC(=O)C3)cc1 [Compound I-338] | > 100
17 | O=C1CC2(CCN(Cc3c[nH]cn3)CC2)CC(=O)N1 [Compound I-339] | > 100
18 | Cc1cc(C(=O)N2CCC3(CC2)CC(=O)NC(=O)C3)ccn1 [Compound I-340] | > 100
19 | O=C1CC2(CCN(C(=O)c3ccn[nH]3)CC2)CC(=O)N1 [Compound I-341] | > 100
20 | O=C1CC2(CCN(Cc3c[nH]c4ccccc34)CC2)CC(=O)N1 [Compound I-342] | > 100
21 | O=C1CC2(CCN(Cc3ccc(Cl)cc3)CC2)CC(=O)N1 [Compound I-343] | > 100
22 | O=C1CC2(CCN(Cc3ccc(Oc4ccccc4)cc3)CC2)CC(=O)N1 [Compound I-344] | > 100
23 | COc1ccc(CN2CCC3(CC2)CC(=O)NC(=O)C3)cn1 [Compound I-345] | > 100
24 | O=C1CC2(CCN(Cc3ccc(-c4ccccc4)cc3)CC2)CC(=O)N1 [Compound I-346] | > 100
25 | O=C1CC2(CCN(Cc3cccc(O)c3)CC2)CC(=O)N1 [Compound I-347] | > 100
26 | O=C1CC2(CCN(C(=O)c3cccs3)CC2)CC(=O)N1 [Compound I-348] | > 100

Row | SMILES | IC50 [µM]
27 | Cc1cccc(CN2CCC3(CC2)CC(=O)NC(=O)C3)n1 [Compound I-349] | > 100
28 | O=C1CC2(CCN(C(=O)c3cccnn3)CC2)CC(=O)N1 [Compound I-350] | > 100
29 | O=C1CC2(CCN(C3CCCC3)CC2)CC(=O)N1 [Compound I-351] | > 100
30 | O=C1CC2(CCN(C(=O)Cc3ccccn3)CC2)CC(=O)N1 [Compound I-352] | > 100
31 | O=C1CC2(CCN(C(=O)c3cnco3)CC2)CC(=O)N1 [Compound I-353] | > 100
32 | O=C1CC2(CCN(C(=O)c3c[nH]cn3)CC2)CC(=O)N1 [Compound I-354] | > 100
33 | COc1ccc(C(=O)N2CCC3(CC2)CC(=O)NC(=O)C3)cn1 [Compound I-355] | > 100
34 | Cc1ccc(CN2CCC3(CC2)CC(=O)NC(=O)C3)o1 [Compound I-356] | > 100
35 | O=C1CC2(CCN(CCc3ccccc3)CC2)CC(=O)N1 [Compound I-357] | > 100
36 | Cc1ncoc1C(=O)N1CCC2(CC1)CC(=O)NC(=O)C2 [Compound I-358] | > 100
37 | O=C1CC2(CCN(C(=O)c3cnccn3)CC2)CC(=O)N1 [Compound I-359] | > 100
38 | O=C1CC2(CCN(C(=O)c3ccco3)CC2)CC(=O)N1 [Compound I-360] | > 100
39 | O=C1CC2(CCN(C(=O)c3ccc4ccoc4c3)CC2)CC(=O)N1 [Compound I-361] | > 100
40 | O=C1CC2(CCN(C(=O)C3CC3)CC2)CC(=O)N1 [Compound I-362] | > 100
41 | O=C1CC2(CCN(Cc3ccncc3)CC2)CC(=O)N1 [Compound I-363] | > 100
42 | O=C1CC2(CCN(C(=O)c3cnon3)CC2)CC(=O)N1 [Compound I-364] | > 100
43 | Cc1cccc(C(=O)N2CCC3(CC2)CC(=O)NC(=O)C3)c1 [Compound I-365] | > 100
44 | O=C1CC2(CCN(C(=O)c3cncnc3)CC2)CC(=O)N1 [Compound I-366] | > 100
45 | O=C1CC2(CCN(C(=O)c3cccc(C(F)(F)F)n3)CC2)CC(=O)N1 [Compound I-367] | > 100
46 | O=C1CC2(CCN(C(=O)c3ccc4ccccc4c3)CC2)CC(=O)N1 [Compound I-368] | > 100
47 | O=C1CC2(CCN(C(=O)c3ccc(O)cc3)CC2)CC(=O)N1 [Compound I-369] | > 100
48 | O=C1CC2(CCN(C(=O)c3n[nH]c4ccccc34)CC2)CC(=O)N1 [Compound I-371] | > 100
49 | O=C1CC2(CCNCC2)CC(=O)N1 [Compound I-372] | > 100
50 | O=C1CC2(CCN(C(=O)c3ccnc(Cl)c3)CC2)CC(=O)N1 [Compound I-373] | > 100
51 | O=C1CC2(CCN(Cc3ccccc3)CC2)CC(=O)N1 [Compound I-374] | > 100

The next lines start with the values.

Row | IC50 [µM] | SMILES
52 | > 100 | CN(C)c1ccc(CN2C[C@@H]3C(=O)NC(=O)[C@@H]3C2)cc1 [Compound I-294]
53 | 30 to 100 | O=C1NC(=O)[C@@H]2CN(Cc3ccc([N+](=O)[O-])s3)C[C@H]12 [Compound I-295]
54 | > 100 | O=C1NC(=O)[C@@H]2CN(C3CCN(Cc4ccccc4)CC3)C[C@H]12 [Compound I-296]
55 | > 100 | O=C1NC(=O)[C@@H]2CN(Cc3c[nH]cn3)C[C@H]12 [Compound I-297]
56 | > 100 | O=C1NC(=O)[C@@H]2CN(CCc3ccccc3)C[C@H]12 [Compound I-298]
57 | > 100 | Cc1ccc(CN2C[C@@H]3C(=O)NC(=O)[C@@H]3C2)cc1 [Compound I-299]
58 | > 100 | O=C1NC(=O)[C@@H]2CN(Cc3ccc[nH]3)C[C@H]12 [Compound I-300]
59 | > 100 | O=C1NC(=O)[C@@H]2CN(C(=O)c3ccnc(Cl)c3)C[C@H]12 [Compound I-301]
60 | > 100 | O=C1NC(=O)[C@@H]2CN(C(=O)c3n[nH]c4ccccc34)C[C@H]12 [Compound I-302]
61 | > 100 | O=C1NC(=O)[C@@H]2CN(C(=O)COCc3ccccc3)C[C@H]12 [Compound I-303]
62 | > 100 | O=C1NC(=O)[C@@H]2CN(C(=O)c3cccnn3)C[C@H]12 [Compound I-304]
63 | > 100 | Cc1cccc(CC(=O)N2C[C@@H]3C(=O)NC(=O)[C@@H]3C2)c1 [Compound I-305]
64 | > 100 | O=C1NC(=O)[C@@H]2CN(C(=O)C3CC3)C[C@H]12 [Compound I-306]
65 | > 100 | O=C1NC(=O)[C@@H]2CN(C(=O)c3cnccn3)C[C@H]12 [Compound I-307]
66 | > 100 | O=C1NC(=O)[C@@H]2CN(C(=O)c3ccco3)C[C@H]12 [Compound I-308]
67 | > 100 | Cc1ncoc1C(=O)N1C[C@@H]2C(=O)NC(=O)[C@@H]2C1 [Compound I-309]

Row | IC50 [µM] | SMILES
68 | > 100 | Cc1cc(C(=O)N2C[C@@H]3C(=O)NC(=O)[C@@H]3C2)ccn1 [Compound I-310]
69 | 30 to 100 | O=C1NC(=O)[C@@H]2CN(Cc3ccc(Oc4ccccc4)cc3)C[C@H]12 [Compound I-311]
70 | > 100 | CCCCOc1ccc(CN2C[C@@H]3C(=O)NC(=O)[C@@H]3C2)cc1 [Compound I-312]
71 | > 100 | O=C1NC(=O)[C@@H]2CN(Cc3ccc(F)c4ccccc34)C[C@H]12 [Compound I-313]
72 | > 100 | Cc1ccc(CN2C[C@@H]3C(=O)NC(=O)[C@@H]3C2)o1 [Compound I-314]
73 | > 100 | O=C1NC(=O)[C@@H]2CN(Cc3cccc4cccnc34)C[C@H]12 [Compound I-315]
74 | 30 to 100 | O=C1NC(=O)[C@@H]2CN(Cc3cc4ccccc4o3)C[C@H]12 [Compound I-316]
75 | 30 to 100 | O=C1NC(=O)[C@@H]2CN(C(=O)c3ccc4ccccc4c3)C[C@H]12 [Compound I-317]
76 | > 100 | O=C1NC(=O)[C@@H]2CN(C(=O)c3cncs3)C[C@H]12 [Compound I-318]
77 | > 100 | O=C1NC(=O)[C@@H]2CN(C(=O)c3ccc4ccoc4c3)C[C@H]12 [Compound I-320]
78 | > 100 | O=C1NC(=O)[C@@H]2CN(C(=O)c3cccs3)C[C@H]12 [Compound I-321]
79 | 30 to 100 | O=C1CC2(CCN(Cc3ccc([N+](=O)[O-])s3)CC2)CC(=O)N1 [Compound I-330]
80 | 30 to 100 | O=C1NC(=O)[C@@H]2CN(C(=O)c3coc(COc4ccc5c(c4)OCO5)n3)C[C@H]12 [Compound I-375]
81 | 30 to 100 | Cc1nn(C)c2nc(N3CCC4(CC3)CC(=O)NC(=O)C4)sc12 [Compound I-376]
82 | 30 to 100 | O=C1CC2(CCc3cc(Br)ccc32)C(=O)N1 (stereo not shown) [Compound I-377]

Source: patent publication US20220281831A1, “FUSED-GLUTARIMIDE CRBN LIGANDS AND USES THEREOF” (Kymera Therapeutics, Inc., priority 2019, published 2022)
